Measurements taken from patent US4428938A, “Peptides affecting the immune regulation and a process for their preparation” (Richter Gedeon Vegyeszeti Gyar Rt., priority 1981, dated 1984).
Non-standard residues stand in square brackets, D forms with d. Residues, ends and D or L forms follow the SMILES beside them. pGlu = O=C1CC[C@@H](C(=O)O)N1

Legend:
[1] = test system: lymphocytes of patients suffering from rheumatoid arthritis; assay: Active E-rosette test, lymphocytes of rheumatoid arthritis patients; type: cell-based, human; settings: for E-rosette forming activity, percentage amount of active lymphocytes: n = 4
Procedure: (§1) The active E-rosette test was carried out according to a modified method of Wybran et al [Wybran et al: New Engl. J. Med. 292, 475 (1975)] by the lymphocites of healthy and autoimmune patients (rheumatoid arthritis and systemic lupus erythematosus). To 50 μl of a lymphocyte cell suspension 10^-3 -10^-11 moles/lit. solutions of the test material were added and the mixture was incubated in an atmosphere containing 5.0% of carbon dioxide, at 37° C. for 60 minutes. Thereafter 50 μlit. of a 1% sheep erythrocite suspension were added and the mixture was centrifuged at 1000 r.p.m. for 10 minutes followed by shaking with a modified Gallenkampf-shaker (shaking time: 30 sec, stroke: 8 cm, shaking frequency: 65/min.). The rosettes were fixed with a 0.1% glutaric aldehyde (50 μlit. for each tube, 3 min.). Lymphocytes bonding more than three sheep erythrocite were counted under a microscope and 4×100 cells were evaluated. The separated lymphocytes contain macrophages and polymorphonuclear cells (up to 10%) as an impurity. The number of the cells forming the rosettes was corrected by this value each case.

[2] = test system: lymphocytes of healthy persons; assay: Active E-rosette test, lymphocytes of healthy persons; type: cell-based, human; settings: for E-rosette forming activity, percentage amount of active lymphocytes: n = 4
Procedure: as §1

[3] = test system: antibody production against sheep erythrocyte; assay: Effect on antibody production (Ceglowski's method), agglutination titer; type: in vivo, H. Wistar rats
Procedure: (1) The effect on antibody production was tested according to Ceglowski's method [Ceglowski: Ann. N.Y. Acad. Sci. 249, 343 (1975)]. New-born H. Wistar rats were treated with single 25 μlit. doses of 4×10^-3 -4×10^-7 moles/lit. of the test material (9 animals for each dose) at the latest at the 12th hour after birth. The 14-day animals were then immunized with a sheep erythrocyte suspension administering 0.5 ml. of a 5% sheep erythrocyte suspension each animal intraperitoneally. On the 7th day after immunization the animals were decapitated. The blood of three animals was mixed and from the serum obtained (after centrifuging at 3000 r.p.m. for 10 minutes) the titers for antibodies were determined by the method of Takatsy [Takatsy: Acta Microbiol. Acad. Sci. Hung. 3, 191 (1955)]. The results are expressed in agglutination titers. The titer corresponds to the […] dilution of the serum in which agglutination can be observed.

[4] = single 25 μlit. dose of 4·10^-3 moles/liter to new-born rats
[5] = single 25 μlit. dose of 4·10^-5 moles/liter to new-born rats
[6] = single 25 μlit. dose of 4·10^-7 moles/liter to new-born rats

| Structure (SMILES) | E-rosette forming activity, percentage amount of active lymphocytes ([1]; 10^-3 moles/liter) | E-rosette forming activity, percentage amount of active lymphocytes ([1]; 10^-5 moles/liter) | E-rosette forming activity, percentage amount of active lymphocytes ([1]; 10^-7 moles/liter) | E-rosette forming activity, percentage amount of active lymphocytes ([1]; 10^-9 moles/liter) | E-rosette forming activity, percentage amount of active lymphocytes ([1]; 10^-11 moles/liter) | E-rosette forming activity, percentage amount of active lymphocytes ([2]; 10^-3 moles/liter) | E-rosette forming activity, percentage amount of active lymphocytes ([2]; 10^-5 moles/liter) | E-rosette forming activity, percentage amount of active lymphocytes ([2]; 10^-7 moles/liter) | E-rosette forming activity, percentage amount of active lymphocytes ([2]; 10^-9 moles/liter) | E-rosette forming activity, percentage amount of active lymphocytes ([2]; 10^-11 moles/liter) | Effect on E-rosette forming activity (in words) ([2]; 10^-9 moles/lit.) | Antibody production, agglutination titer (X ± S.D.) [3, 4] | Antibody production, agglutination titer (X ± S.D.) [3, 5] | Antibody production, agglutination titer (X ± S.D.) [3, 6] | Effect on E-rosette forming activity (in words) ([1]; 10^-7 moles/lit.) | Effect on E-rosette forming activity (in words) ([2]; 10^-11 moles/lit.) | In vivo effect on the antibody production (in words) ([3]; 4.10^-7 moles/lit.) | Effect on E-rosette forming activity (in words) ([1]; 10^-9 moles/lit.) | Effect on E-rosette forming activity (in words) ([1]; 10^-11 moles/lit.) | Effect on E-rosette forming activity (in words) ([1]; 10^-5 moles/lit.) |
| --- | --- | --- | --- | --- | --- | --- | --- | --- | --- | --- | --- | --- | --- | --- | --- | --- | --- | --- | --- | --- |
| CC(C)[C@H](NC(=O)[C@H](CC(=O)O)NC(=O)[C@H](C)NC(=O)[C@@H](N)CCCNC(=N)N)C(=O)O [Arg--Ala--Asp--Val, Arg-Ala-Asp-Val] (H-RADV-OH) | 21.8% | 20.2% | 19.8% | 20.7% | 22.5% | 32.5% | 33.4% | 32.4% | 38.2% | 36.0% | – | – | – | – | – | – | – | – | – | – |
| CC(C)[C@H](NC(=O)[C@H](CCCCN)NC(=O)[C@H](CC(=O)O)NC(=O)[C@@H](N)CCCNC(=N)N)C(=O)O [Arg--Asp--Lys--Val, Arg-Asp-Lys-Val] (H-RDKV-OH) | 25.4% | 26.2% | 26.4% | 27.3% | 27.5% | 34.2% | 37.5% | 37.7% | 40.4% | 36.4% | significant stimulating effect | – | – | – | – | – | – | – | – | – |
| CC(C)[C@H](NC(=O)[C@H](C)NC(=O)[C@H](CCCCN)NC(=O)[C@@H](N)CCCNC(=N)N)C(=O)O [Arg--Lys--Ala--Val, Arg-Lys-Ala-Val] (H-RKAV-OH) | 20.3% | 23.4% | 21.7% | 25.5% | 23.1% | 33.3% | 30.5% | 35.8% | 34.5% | 30.9% | – | – | – | – | – | – | – | – | – | – |
| CC(C)[C@H](NC(=O)[C@H](CC(N)=O)NC(=O)[C@H](CCCCN)NC(=O)[C@@H](N)CCCNC(=N)N)C(=O)O [Arg--Lys--Asn--Val, Arg-Lys-Asn-Val] (H-RKNV-OH) | 22.3% | 21.9% | 24.6% | 23.7% | 24.3% | 35.5% | 39.1% | – | 35.4% | 36.7% | – | – | – | – | – | – | – | – | – | – |
| CC[C@H](C)[C@H](NC(=O)[C@H](CC(=O)O)NC(=O)[C@H](CCCCN)NC(=O)[C@@H](N)CCCNC(=N)N)C(=O)O [Arg--Lys--Asp--Ile, Arg-Lys-Asp-Ile] (H-RKDI-OH) | 25.5% | 25.4% | 23.2% | 28.7% | 24.5% | 35.5% | 32.0% | 34.9% | 35.0% | 30.7% | – | – | – | – | – | – | – | – | – | – |
| COC(=O)[C@@H](NC(=O)[C@H](CC(=O)O)NC(=O)[C@H](CCCCN)NC(=O)[C@@H](N)CCCNC(=N)N)C(C)C [Arg--Lys--Asp--Val--OMe, Arg-Lys-Asp-Val-OMe] (H-RKDV-OMe) | 31.2% | 30.8% | 32.4% | 27.9% | 26.5% | 26.8% | 27.2% | 29.4% | 24.8% | 23.8% | – | 6.0 ± 1.7 | 4.5 ± 0.5 | 5.5 ± 2.6 | stimulating effect | – | – | – | – | – |
| CC(C)[C@H](NC(=O)[C@H](CCC(=O)O)NC(=O)[C@H](CCCCN)NC(=O)[C@@H](N)CCCNC(=N)N)C(=O)O [Arg--Lys--Glu--Val, Arg-Lys-Glu-Val] (H-RKEV-OH) | – | – | – | – | – | 33.2% | 32.9% | 36.2% | 35.4% | 33.0% | – | – | – | – | – | – | – | – | – | – |
| N=C(N)NCCC[C@H](NC(=O)[C@@H]1CCC(=O)N1)C(=O)N[C@@H](CCCCN)C(=O)N[C@@H](CC(=O)O)C(=O)O [Glp--Arg--Lys--Asp, Glp-Arg-Lys-Asp] ([pGlu]RKD-OH) | 20.6% | 18.7% | 19.5% | 19.7% | 18.4% | 29.1% | 33.8% | 35.1% | 26.6% | 38.1% | – | – | – | – | – | stimulating effect | – | – | – | – |
| CC(C)[C@H](NC(=O)[C@H](CC(=O)O)NC(=O)[C@H](CCCCN)NC(=O)[C@H](CCCNC(=N)N)NC(=O)[C@@H]1CCC(=O)N1)C(=O)O [Glp--Arg--Lys--Asp--Val, Glp-Arg-Lys-Asp-Val] ([pGlu]RKDV-OH) | 22.8% | 23.2% | 21.4% | 19.4% | 20.4% | – | – | – | – | – | – | 9.0 ± 2.6 | 8.3 ± 0.6 | 7.2 ± 1.3 | – | – | inhibiting activity | – | – | – |
| CC(C)[C@H](NC(=O)[C@H](CC(=O)O)NC(=O)[C@H](CCCNC(=N)N)NC(=O)[C@@H](N)CCCCN)C(=O)O [Lys--Arg--Asp--Val, Lys-Arg-Asp-Val] (H-KRDV-OH) | 23.6% | 25.8% | 21.2% | 25.7% | 26.6% | 31.5% | 25.6% | 30.0% | 29.1% | 32.9% | – | – | – | – | – | – | – | significantly stimulated | stimulating effect | – |
| N=C(N)NCCC[C@H](NC(=O)[C@@H]1CCC(=O)N1)C(=O)N[C@@H](CCCCN)C(=O)N[C@@H](CC(=O)O)C(=O)O [compound No. 8] ([pGlu]RKD-OH) | – | – | – | – | – | – | – | – | – | – | – | – | – | – | – | – | – | – | – | significant inhibiting activity |
| CC(C)[C@H](NC(=O)[C@H](CC(N)=O)NC(=O)[C@H](CCCCN)NC(=O)[C@@H](N)CCCNC(=N)N)C(=O)O [compound No. 9] (H-RKNV-OH) | – | – | – | – | – | – | – | – | – | – | – | – | – | – | – | – | – | – | – | significant inhibiting activity |
